The values below come from patent publication EP1954678B1, “NOVEL NK1 AND NK2 ANTAGONISTS” (Abbott Products GmbH, priority 2005, dated 2007).

Read-outs that look alike come from different tables or passages of the source. Where only a bound is given, the exact number is not on record here.

Assay [1] has as its target T1, NK1 receptors (Cavia porcellus, UniProt P30547). In words: NK-1-receptor-antagonistic effectiveness in vivo in anaesthetised guinea pigs (NKA test stimulus, early hypotension). The arrangement: from tissue; host or cells: whole anaesthetised guinea pig (in vivo); species or system Pirbright-White guinea pigs. As to conditions: for ED50: guinea pig; for oral activity as NK1 receptor antagonist: result in words, oral administration. The text has this:
The NK-1- and NK-2-antagonistic activities of the test substances were investigated in anaesthetised guinea pigs in each case after intravenous (= i.v.) and oral (= p.o.) administration in vivo. With the present test model it is possible to detect both NK-2-antagonistic effects in three different organ systems (respiratory tracts, colon and circulation) and NK-1-antagonistic effects (rapid drop in blood pressure) in an animal simultaneously.
Pirbright-White guinea pigs of a body weight of 500-700 g were anaesthetised with ketamine/xylazine (67/13 mg/kg subcutaneously, initial dose, further doses administered as required). The animals were provided with an intravenous catheter in order to administer the substance and an intra-arterial catheter to measure the blood pressure. The animals were artificially ventilated via a tracheal cannula and the respiratory pressure was recorded by means of a pressure transducer. A balloon was introduced into the distal colon of the animals for manometric recording of colon motility by means of a pressure transducer. Blood pressure, heart rate, respiratory pressure and colonic pressure were measured continuously for each animal and plotted on a recorder and by means of a digital data-processing system. […] The second phase of delayed hypotension (= phase of maximum hypotension after 2-5 min.) on the other hand is mediated via NK-2 receptors, since they can be blocked by specific NK-2 receptor antagonists. […] Table 6: NK-1- and NK-2-receptor-antagonistic effective-ness of the test substances of Formula I on guinea pigs in vivo after intravenous administration
These ED50 values obtained from cumulative dose effect curves are plotted in table 6.
The antagonistic effects of the test substances were then determined as "area under the curve" ("AUC") over the investigation period after administration of the test substances (1 - 180 min after administration) and the ED50 values after oral administration obtained therefrom were plotted in table 7. Table 7: NK-1- and NK-2-receptor-antagonistic effective-ness of the test substances of Formula I on guinea pigs in vivo after oral administration

Assay [2] concerns the target T1, NK1 receptors. Briefly: Functional NK1 antagonism on isolated guinea pig aorta ring preparations (Substance P induced relaxation). The arrangement: from tissue; host or cells: guinea pig aorta ring preparations; species or system Pirbright-White guinea pigs. On the procedure:
In The Netherlands, the action antagonistic to NK1 receptors of the test substances was measured in vitro on isolated ring preparations, kept in an oxygenated nutrient solution, of the aortas of Pirbright-White guinea pigs.
In order to measure the contraction of the vessel muscles, the preparations were fixed to a hook, joined by a thread to a force measuring apparatus and the contractions were recorded in each case on a plotter. The aorta preparations were tonicised with phenylephrine. […] The relaxations before and after the administration of the test substance were quantified in percent. The effective concentration of the half maximum inhibition of the relaxation of the tone (= EC50) was calculated. The negative common logarithm of the EC50 value (= pEC50) was given as characteristic variable. The pEC50 value is a measurement of the functional effectiveness of the test substances on NK1 receptors.

For the next assay, the target named is T2, human NK1 receptors (Homo sapiens, UniProt P25103).
T2 construct: expressed in transfected cells; host or cells: CHO cells (membrane preparation)
T2 sequence (P25103 whole entry): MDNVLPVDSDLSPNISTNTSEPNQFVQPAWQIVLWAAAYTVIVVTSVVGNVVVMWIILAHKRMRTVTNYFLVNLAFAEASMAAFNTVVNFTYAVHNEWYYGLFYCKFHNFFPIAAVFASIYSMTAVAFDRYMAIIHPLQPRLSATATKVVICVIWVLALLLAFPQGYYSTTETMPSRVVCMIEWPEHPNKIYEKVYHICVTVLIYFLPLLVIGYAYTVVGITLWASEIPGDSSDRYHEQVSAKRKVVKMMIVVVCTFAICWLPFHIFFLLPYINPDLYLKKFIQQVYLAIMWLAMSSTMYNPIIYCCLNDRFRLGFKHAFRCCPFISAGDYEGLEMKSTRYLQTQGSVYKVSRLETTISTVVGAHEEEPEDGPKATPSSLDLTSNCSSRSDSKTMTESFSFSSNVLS
In words: Binding of the test substances to NK1 receptors in vitro ([3H]-Substance P displacement, CHO cell membranes). The settings on record: [3H]-Substance P as ligand; membranes of CHO cells expressing the human NK1 receptor; Ki calculated from IC50; read-out: pKi (NK1) (converted). On the procedure: In The Netherlands, the affinity of the test substances to human NK1 receptors was measured in vitro.
The receptor binding studies were performed with [^3H]-Substance P as ligand. For the binding test, different samples of a membrane preparation of CHO cells (= egg cells of the Chinese hamster, Chinese hamster oocytes), which express the human NK1 receptor ("Accession Number" of the associated nucleic acid sequence = M74290; "Accession Number" of the associated protein sequence = P25103; cf. Takeda, Y.; Chou, K. B., Takeda, J.; Sachais, B.S. and Krause, J. E; Biochemical and Biophysical Research Communications, 179(3) (1991) 1232 - 1240), were incubated with a solution of the marked ligand, with the incubation mixtures containing no test substance or additions of different concentrations of test substance. Then, separation of bound and free ligands was performed in each of the samples with the aid of glass-fibre filtration. The fraction remaining in the filter was washed several times with buffer solution and then the radioactivity of the fraction remaining in the filter was measured using a beta scintillation counter.
For the compounds of Examples 1 to 14, that concentration which effects half maximum displacement of the bound ligand was determined as IC50 of the respective test substance. From this, the corresponding inhibition constant (Ki value) of the test substance was calculated, and was stated as the negative common logarithm of the Ki value (= pKi value). The pKi value is a measurement of the affinity of the test substances to human NK1 receptors.

The target in assay [3] is T3, cloned human NK1 receptors (Homo sapiens, UniProt P25103).
T3 construct: expressed in transfected cells
T3 sequence (P25103 whole entry): as above
Briefly: Ca2+ measurements using FLIPR for NK1 activity in CHO cells. The format is cell-based. As to conditions: substance P 10^-8 M as agonist; compound applied 7 min before; pA2 calculated from IC50. The text has this: (§1) The NK receptor is coupled to Gq.
(§2) All steps were done under sterile conditions. […] The results are summarized in table 5: Table 5: pA2 data for NK1 and NK2: […]

Assay [4] deals with T4, cloned human NK2 receptors (Homo sapiens, UniProt P21452).
T4 construct: expressed in transfected cells
T4 sequence (P21452 1-398): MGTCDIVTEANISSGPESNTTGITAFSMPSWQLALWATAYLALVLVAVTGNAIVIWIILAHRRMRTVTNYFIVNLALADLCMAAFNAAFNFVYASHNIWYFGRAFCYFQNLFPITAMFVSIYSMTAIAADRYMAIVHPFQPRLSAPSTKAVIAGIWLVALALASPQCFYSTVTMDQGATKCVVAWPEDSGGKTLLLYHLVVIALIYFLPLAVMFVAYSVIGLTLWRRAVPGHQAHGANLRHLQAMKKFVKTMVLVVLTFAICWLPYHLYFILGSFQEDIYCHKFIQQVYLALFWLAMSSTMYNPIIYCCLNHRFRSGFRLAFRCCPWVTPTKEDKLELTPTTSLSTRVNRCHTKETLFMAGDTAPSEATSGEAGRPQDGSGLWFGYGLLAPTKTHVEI
In words: Ca2+ measurements using FLIPR for NK2 activity in CHO cells. The format is cell-based. As to conditions: NKA 10^-7 M as agonist; compound applied 7 min before; pA2 calculated from IC50.
Excerpt: as §1, §2

[5] abbreviates: iv, read-out: ED50 iv after 1 min (cumulative) NK1 (early hypotension).
Where [6] appears, read: oral, from AUC of antagonistic effect 1 - 180 min after administration, read-out: ED50 AUC1-180 min oral NK1 (early hypotension).

T1 sequence (P30547 whole entry): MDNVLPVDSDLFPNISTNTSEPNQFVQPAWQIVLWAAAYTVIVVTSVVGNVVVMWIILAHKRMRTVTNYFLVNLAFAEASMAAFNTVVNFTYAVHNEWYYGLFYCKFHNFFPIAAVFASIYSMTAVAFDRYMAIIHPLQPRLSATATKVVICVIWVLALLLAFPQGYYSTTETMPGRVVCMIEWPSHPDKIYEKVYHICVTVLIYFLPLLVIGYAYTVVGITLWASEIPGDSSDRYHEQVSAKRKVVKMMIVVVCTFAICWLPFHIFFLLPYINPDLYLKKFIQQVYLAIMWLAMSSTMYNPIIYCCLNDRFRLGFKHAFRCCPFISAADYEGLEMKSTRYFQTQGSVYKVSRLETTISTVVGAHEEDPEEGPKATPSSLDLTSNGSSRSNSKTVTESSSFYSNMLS

`CN(C[C@@H](CCN1CCN([C@@H](c2ccco2)[C@H]2COC(=O)O2)CC1)c1ccc(Cl)c(Cl)c1)C(=O)c1cc(C#N)cc2ccccc12` [Compound 11, 3-cya no-N-[(2S)-2-(3,4-dichlorophenyl)-4-(4-{(R)-2-furyl[(4S)-2-oxo-1,3-dioxolan-4-yl]methyl}piperazin-1-yl)butyl]-N-methyl-1-naphthamide]: on NK1 receptors [1] (setting [5]), the ED50 turned out to be 0.093 µmol/kg. For the same compound, on NK1 receptors [2], the concentration for a half-maximal effect (EC50) is 1.26 nM. Further, the Ki at human NK1 receptors was 7.94 nM.

As for `CN(C[C@@H](CCN1CCN(C(CO)(CO)c2ccco2)CC1)c1ccc(Cl)c(Cl)c1)C(=O)c1cc(C#N)cc2ccccc12` [Compound 6, 3-cyano-N-[(2S)-2-(3,4-dichlorophenyl)-4-{4-[1-(2-furyl)-2-hydroxy-1-(hydroxymethyl)ethyl]piperazin-1-yl}butyl]-N-methyl-1-naphthamide], the ED50 at NK1 receptors [1] (setting [5]) amounted to 0.071 µmol/kg. Besides, on NK1 receptors [2], the response was half-maximal at 0.398 nM (EC50). For the same compound, the Ki on human NK1 receptors was 5.01 nM.

As for `CN(C[C@@H](CCN1CCN([C@@H](c2ccco2)[C@H](O)[C@@H](O)[C@H](O)CO)CC1)c1ccc(Cl)c(Cl)c1)C(=O)c1cc(C#N)cc2ccccc12` [Compound 2, 3-cyano-N-[(2S)-2-(3,4-dichlorophenyl)-4-{4-[(1R,2S,3R,4R)-1-(2-furyl)-2,3,4,5-tetrahydroxypentyl]piperazin-1-yl}butyl]-N-methyl-1-naphthamide], the ED50 at NK1 receptors [1] (setting [5]) was under 0.01 µmol/kg; on NK1 receptors [1] (setting [6]), 15.2 µmol/kg. Further, the “oral activity as NK1 receptor antagonist” value on NK1 receptors [1] is reported as “active orally”. The EC50 on NK1 receptors [2] was 0.316 nM. For the same compound, the Ki at human NK1 receptors is 3.16 nM.

Regarding `CN(C[C@@H](CCN1CCN([C@@H](c2ccco2)[C@H](O)CO)CC1)c1ccc(Cl)c(Cl)c1)C(=O)c1cc(C#N)cc2ccccc12` [Compound 1, 3-cyano-N-[(2S)-2-(3,4-dichlorophenyl)-4-{4-[(1R,2S)-1-(2-furyl)-2,3-dihydroxypropyl]piperazin-1-yl}butyl]-N-methyl-1-naphthamide], the Kb in assay [3] was 1.26 nM; in assay [4], 10 nM. In addition, the ED50 at NK1 receptors [1] (setting [5]) was found to be 0.077 µmol/kg; at NK1 receptors [1] (setting [6]), 22.9 µmol/kg. The “oral activity as NK1 receptor antagonist” value at NK1 receptors [1] is “active orally”. The compound also had an EC50 at NK1 receptors [2] of 0.398 nM. For the same compound, the Ki on human NK1 receptors was 3.98 nM.
